{"source": "patent US20170108488A1", "about": "“Array and Method of Use” (Quick Biology, Inc., priority 2015, published 2017)", "origin": "cited, not measured here", "key": {"BRAF": {"target": "BRAF (Homo sapiens, UniProt P15056, V600E)", "sequence (P15056 whole entry V600E)": "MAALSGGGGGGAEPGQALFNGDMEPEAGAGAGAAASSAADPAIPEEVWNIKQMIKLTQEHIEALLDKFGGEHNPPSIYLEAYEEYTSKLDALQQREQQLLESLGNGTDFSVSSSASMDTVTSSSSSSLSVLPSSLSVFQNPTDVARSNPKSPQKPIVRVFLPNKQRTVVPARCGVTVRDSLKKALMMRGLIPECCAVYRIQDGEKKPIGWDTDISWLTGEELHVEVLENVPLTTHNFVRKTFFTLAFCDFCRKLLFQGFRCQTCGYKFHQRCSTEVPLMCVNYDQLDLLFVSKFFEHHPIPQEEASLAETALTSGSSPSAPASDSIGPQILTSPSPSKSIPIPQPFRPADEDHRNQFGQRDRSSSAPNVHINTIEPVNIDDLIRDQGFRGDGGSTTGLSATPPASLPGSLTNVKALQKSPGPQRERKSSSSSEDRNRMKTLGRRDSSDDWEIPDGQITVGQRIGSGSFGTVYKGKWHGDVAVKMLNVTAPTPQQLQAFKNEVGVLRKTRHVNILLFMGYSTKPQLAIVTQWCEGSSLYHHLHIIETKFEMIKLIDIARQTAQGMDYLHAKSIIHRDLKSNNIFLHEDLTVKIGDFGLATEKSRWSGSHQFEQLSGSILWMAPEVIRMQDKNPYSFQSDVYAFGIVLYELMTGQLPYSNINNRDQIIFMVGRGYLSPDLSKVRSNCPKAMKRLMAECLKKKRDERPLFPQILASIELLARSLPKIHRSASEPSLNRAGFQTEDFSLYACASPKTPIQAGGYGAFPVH", "conditions": "melanomas with BRAF activating mutations"}, "SB-2 tumor xenograft": {"test_system": "SB-2 tumor xenograft", "conditions": "in combination with the MEK inhibitor GSK1120212; NRAS mutant melanoma"}}, "data": [{"smiles": "CCCS(=O)(=O)Nc1ccc(F)c(C(=O)c2c[nH]c3ncc(-c4ccc(Cl)cc4)cc23)c1F", "note": "[PLX4032]", "values": [{"measurement": "success rate in melanomas", "setting": "BRAF", "value": "high success rate"}]}, {"smiles": "CC(=O)c1c(C)c2cnc(Nc3ccc(N4CCNCC4)cn3)nc2n(C2CCCC2)c1=O", "note": "[PD-0332991]", "values": [{"measurement": "tumor response in SB-2 tumor xenograft", "setting": "SB-2 tumor xenograft", "value": "tumor regression was achieved"}]}]}
